Test results as given in US4520031A, “Method for reducing toxic effects of methyl-glyoxal bis-guanylhydrazone” (priority 1982, dated 1985).
“Also recorded” adds a separate entry of the source. Like-named read-outs stand apart in the source and are kept apart here.

Assays:
[1] = tested on: Melanoma; experiment: Response to weekly MGBG, melanoma; assay type: in vivo, human; conditions: 1 evaluable patient
Experimental: (§1) During the course of the clinical experiments, MGBG was administered to patients in approximately weekly doses ranging from 250 to 1000 mg per square meter.
(§2) Pre-treatment minimum evaluation included chest roentgenogram, liver and renal function tests, complete blood count with differential and platelet count and serum glucose. Pre-treatment performance status was recorded for each patient in accordance with SWOG criteria.
(§3) This intravenous infusion is administered to the patient over a period of time not less than 30 minutes. Accordingly, an approximation of the patient's surface area in square meters is calculated using a height and weight to surface area nomogram (listed in Documenta Geigy, Scientific Tables (1970) p. 537) and this factor is applied in determining the appropriate amount of MGBG salt to be added to the infusion solution. […] In the absence of toxicity, subsequent doses of MGBG are increased by 100 mg/m^2 over the previous week's dose. If patients experience moderate or severe reversible toxicity, the dose is reduced by 100 mg/m^2 relative to the previous week's dose. No change in dosage strength is made for mild toxicity.

[2] = some peculiar to certain animal species; cited from earlier work
[3] = tested on: Leukemia; experiment: Response to weekly MGBG, leukemia; assay type: in vivo, human; conditions: 1 mg/m^2 weekly for three weeks; 1 evaluable patient
Experimental: **Patient received 1 mg/m^2 weekly for three weeks

[4] = tested on: leukemia-L1210; conditions: Freelander and French; cited from earlier work
[5] = tested on: Colon; experiment: Response to weekly MGBG, colon; assay type: in vivo, human; conditions: 14 evaluable patients
Experimental: as §1, §2, §3

[6] = tested on: polyamine synthesis; conditions: in vitro; cited from earlier work
[7] = tested on: Hepatoma; experiment: Response to weekly MGBG, hepatoma; assay type: in vivo, human; conditions: 1 evaluable patient
Experimental: as §1, §2, §3

[8] = tested on: Renal; experiment: Response to weekly MGBG, renal; assay type: in vivo, human
Experimental: as §1, §2, §3

[9] = tested on: mitochondrial respiration; conditions: in vitro; cited from earlier work
[10] = tested on: Lymphoma; experiment: Response to weekly MGBG, lymphoma; assay type: in vivo, human; conditions: 2 evaluable patients
Experimental: as §1, §2, §3

[11] = tested on: Breast; experiment: Response to weekly MGBG, breast; assay type: in vivo, human; conditions: 12 evaluable patients
Experimental: as §1, §2, §3

[12] = tested on: Adenocarcinoma (unknown primary); experiment: Response to weekly MGBG, adenocarcinoma; assay type: in vivo, human
Experimental: as §1, §2, §3

[13] = tested on: Ewings; experiment: Response to weekly MGBG, Ewings; assay type: in vivo, human; conditions: 1 evaluable patient
Experimental: as §1, §2, §3

[14] = tested on: Oat Cell; experiment: Response to weekly MGBG, oat cell; assay type: in vivo, human; conditions: 1 evaluable patient
Experimental: as §1, §2, §3

[15] = tested on: DNA synthesis; conditions: reversed by exogenous spermidine; cited from earlier work
[16] = tested on: Pancreas; experiment: Response to weekly MGBG, pancreas; assay type: in vivo, human; conditions: 5 evaluable patients
Experimental: as §1, §2, §3

[17] = tested on: Head & Neck; experiment: Response to weekly MGBG, head & neck; assay type: in vivo, human; conditions: 2 evaluable patients
Experimental: as §1, §2, §3

[18] = cited from earlier work
[19] = tested on: protein synthesis; conditions: in vitro; cited from earlier work
[20] = tested on: Prostate; experiment: Response to weekly MGBG, prostate; assay type: in vivo, human; conditions: 6 evaluable patients
Experimental: as §1, §2, §3

[21] = tested on: spermidine biosynthesis; conditions: in vitro; concentrations as low as; cited from earlier work
[22] = tested on: advanced malignant disease; experiment: Response to weekly MGBG, all diagnoses (Table I); assay type: in vivo, human
Experimental: as §1, §2, §3

[23] = cited from earlier work; for Penile inflammation: % of male population
[24] = acute leukemia, iv 150 mg/m^2/day
[25] = lymphomas and solid tumors, iv 150 mg/m^2/day
[26] = Group I, less than 100 mg/m^2/day
[27] = Group II, 100 to 125 mg/m^2/day
[28] = Group III, 126 to 160 mg/m^2/day

CC(C=NNC(=N)N)=NNC(=N)N [MGBG, 1,1'-[(methylethanediylidene)dinitrilo] diguanidine]
IMP (Improvement noted) [1]: 1
toxicological effects observed [2]: gastrointestinal toxicity, delayed and fatal hypoglycemia, hepatic and renal damage, bone marrow depression, diarrhea and phlebitis
IMP (Improvement noted) [3]: 1
antitumor activity [4]: growth inhibiting effects; also recorded: antitumor activity
CR + PR [5]: 3
No Response [5]: 11
PR (Partial response) [5]: 3
intermediate concentrations acting selectively on all polyamine synthesis [6]: 0.6 to 2.4 µg/mL
No Response [7]: 1
CR + PR ([8]; 5 evaluable patients): 1
IMP (Improvement noted) ([8]; 5 evaluable patients): 2
No Response ([8]; 5 evaluable patients): 2
PR (Partial response) ([8]; 5 evaluable patients): 1
Duration Months ([8]; duration of CR + PR): 5 Months
concentration with complete inhibition of mitochondrial respiration [9]: ≥ 30000 ng/mL
No Response [10]: 2
IMP (Improvement noted) [11]: 2
No Response [11]: 10
CR (Complete response) ([12]; 3 evaluable patients): 1
CR + PR ([12]; 3 evaluable patients): 1
IMP (Improvement noted) ([12]; 3 evaluable patients): 1
PR (Partial response) ([12]; 3 evaluable patients): 1
Duration Months ([12]; duration of CR + PR): 2 Months
No Response [13]: 1
IMP (Improvement noted) [14]: 1
MGBG-mediated depression of DNA synthesis, associated changes [15]: spermidine depletion and putrescine accumulation
CR + PR [16]: 2
No Response [16]: 3
PR (Partial response) [16]: 2
No Response [17]: 2
Leukopenia <3000/mm^3 or <50% of initial value [18, 24]: 16 patients
Leukopenia <3000/mm^3 or <50% of initial value, severe toxicity which contributed to death [18, 24]: 1 patients
response to MGBG ([18]; intravenous 150 mg/m^2/day, Regelson and Holland): seen only in the presence of significant toxicity which seriously compromised any clinical improvement
"Myositis" ([18]; iv 150 mg/m^2/day, 46 patients): 5 patients
Cutaneous lesions ([18]; iv 150 mg/m^2/day, 46 patients): 12 patients
Diarrhea ([18]; iv 150 mg/m^2/day, 46 patients): 32 patients
Diarrhea, severe toxicity which contributed to death ([18]; iv 150 mg/m^2/day, 46 patients): 1 patients
Oropharyngeal and/or esophageal toxicity ([18]; iv 150 mg/m^2/day, 63 courses in 46 patients): 43 patients
Hypoglycemia <60 mg % ([18]; iv 150 mg/m^2/day): 4 patients
Hypoglycemia <60 mg %, severe toxicity which contributed to death ([18]; iv 150 mg/m^2/day): 2 patients
Laryngitis ([18]; iv 150 mg/m^2/day): 14 patients
Laryngitis, severe toxicity which contributed to death ([18]; iv 150 mg/m^2/day): 1 patients
Proctitis ([18]; iv 150 mg/m^2/day): 2 patients
Vulvovaginitis ([18]; iv 150 mg/m^2/day): 4 patients
Leukopenia <3000 mm^3 [18, 25]: 5 patients
Leukopenia <3000 mm^3, severe toxicity which contributed to death [18, 25]: 1 patients
Thrombocytopenia <75,000/mm^3 [18, 25]: 3 patients
deaths to which severe toxicity contributed ([18]; of 27 patients who died while on study): 6 patients
concentration with direct toxic effects, including inhibition of protein synthesis [19]: ≥ 30000 ng/mL
IMP (Improvement noted) [20]: 1
No Response [20]: 5
concentration at which MGBG is a potent inhibitor of spermidine biosynthesis [21]: ≥ 0.5 µg/mL
biologic effect at 250 mg/m^2 ([22]; 12 patients, 250 mg/m^2): no apparent biologic effect
response at 250 mg/m^2 weekly ([22]; first twelve patients, 250 mg/m^2 weekly): no response
CR (Complete response), total ([22]; weekly, 65 evaluable patients): 2
CR + PR, total ([22]; weekly, 65 evaluable patients): 11
IMP (Improvement noted), total ([22]; weekly, 65 evaluable patients): 9
No Response, total ([22]; weekly, 65 evaluable patients): 45
PR (Partial response), total ([22]; weekly, 65 evaluable patients): 9
antineoplastic activity in solid tumors ([22]; weekly, colon, esophageal, renal cell, prostate, and breast carcinoma): effective
Acroerythema (number of patients) [23, 26]: 0 patients
Diarrhea [23, 26]: 40%
Diarrhea (number of patients) [23, 26]: 4 patients
Died during treatment [23, 26]: 42%
Died during treatment (number of patients) [23, 26]: 5 patients
Erythema Nodosum [23, 26]: 10%
Erythema Nodosum (number of patients) [23, 26]: 1 patients
Mucosal involvement [23, 26]: 80%
Mucosal involvement (number of patients) [23, 26]: 8 patients
Penile inflammation (number of patients) [23, 26]: 0 patients
Vasculitis [23, 26]: 40%
Vasculitis (number of patients) [23, 26]: 4 patients
Weight Loss (Median %) [23, 26]: 0%
Penile inflammation [23, 27]: 25%
Acroerythema [23, 27]: 17%
Acroerythema (number of patients) [23, 27]: 4 patients
Diarrhea [23, 27]: 41%
Diarrhea (number of patients) [23, 27]: 6 patients
Died during treatment [23, 27]: 62%
Died during treatment (number of patients) [23, 27]: 10 patients
Erythema Nodosum [23, 27]: 9%
Erythema Nodosum (number of patients) [23, 27]: 2 patients
Mucosal involvement [23, 27]: 98%
Mucosal involvement (number of patients) [23, 27]: 15 patients
Penile inflammation (number of patients) [23, 27]: 3 patients
Vasculitis [23, 27]: 25%
Vasculitis (number of patients) [23, 27]: 5 patients
Weight Loss (Median %) [23, 27]: 6%
Penile inflammation [23, 28]: 23%
Acroerythema [23, 28]: 17%
Acroerythema (number of patients) [23, 28]: 6 patients
Diarrhea [23, 28]: 42%
Diarrhea (number of patients) [23, 28]: 15 patients
Died during treatment [23, 28]: 30%
Died during treatment (number of patients) [23, 28]: 11 patients
Erythema Nodosum [23, 28]: 12%
Erythema Nodosum (number of patients) [23, 28]: 3 patients
Mucosal involvement [23, 28]: 91%
Mucosal involvement (number of patients) [23, 28]: 31 patients
Penile inflammation (number of patients) [23, 28]: 4 patients
Vasculitis [23, 28]: 25%
Vasculitis (number of patients) [23, 28]: 8 patients
Weight Loss (Median %) [23, 28]: 10%
Acroerythema ([23]; Group IV, over 160 mg/m^2/day): 20%
Acroerythema (number of patients) ([23]; Group IV, over 160 mg/m^2/day): 2 patients
Diarrhea ([23]; Group IV, over 160 mg/m^2/day): 20%
Diarrhea (number of patients) ([23]; Group IV, over 160 mg/m^2/day): 2 patients
Died during treatment ([23]; Group IV, over 160 mg/m^2/day): 83%
Died during treatment (number of patients) ([23]; Group IV, over 160 mg/m^2/day): 10 patients
Erythema Nodosum (number of patients) ([23]; Group IV, over 160 mg/m^2/day): 0 patients
Mucosal involvement ([23]; Group IV, over 160 mg/m^2/day): 100%
Mucosal involvement (number of patients) ([23]; Group IV, over 160 mg/m^2/day): 10 patients
Penile inflammation (number of patients) ([23]; Group IV, over 160 mg/m^2/day): 0 patients
Vasculitis ([23]; Group IV, over 160 mg/m^2/day): 20%
Vasculitis (number of patients) ([23]; Group IV, over 160 mg/m^2/day): 2 patients
Weight Loss (Median %) ([23]; Group IV, over 160 mg/m^2/day): 5%
incidence of toxicity under other schedules ([23]; continuous 24-hour infusion, very high initial dose then lower maintenance doses, versus daily dosing): neither of these regimens altered the incidence of associated toxicity
